# Source: ChEMBL document CHEMBL1154668, “Design and synthesis of 6-oxo-1,6-dihydropyridines as CDK5 inhibitors” (Bioorg Med Chem Lett, 2009)
# Experiments:
# [1] = biological target: Cyclin-dependent kinase 5/CDK5 activator 1 (Homo sapiens, UniProt Q00535); test: Inhibition of human CDK5/p25 assessed as histone h1 phosphorylation in presence of ATP; type: protein-complex assay
# Brain = test: Drug uptake in rat brain at 2 mg/kg, iv; type: ADME, organism-based; set-up: dose 2 mg/kg, route intravenous; settings: in vivo
# Homo sapiens = organism: Homo sapiens; test: Selectivity for human CDK5/p25 over human CDK2/cyclin E2
# Cyclin-dependent kinase 5/CDK5 activator 1, sequence (Q00535 whole entry): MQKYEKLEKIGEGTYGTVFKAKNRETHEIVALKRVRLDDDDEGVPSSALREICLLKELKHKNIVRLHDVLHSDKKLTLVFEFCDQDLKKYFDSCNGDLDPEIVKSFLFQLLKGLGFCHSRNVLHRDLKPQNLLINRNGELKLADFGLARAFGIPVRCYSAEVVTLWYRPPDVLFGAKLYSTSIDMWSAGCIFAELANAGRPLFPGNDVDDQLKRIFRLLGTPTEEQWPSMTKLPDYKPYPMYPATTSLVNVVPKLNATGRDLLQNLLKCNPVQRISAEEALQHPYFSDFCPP
# Cyclin-dependent kinase 5/CDK5 activator 1, sequence (Q15078 whole entry, further chain): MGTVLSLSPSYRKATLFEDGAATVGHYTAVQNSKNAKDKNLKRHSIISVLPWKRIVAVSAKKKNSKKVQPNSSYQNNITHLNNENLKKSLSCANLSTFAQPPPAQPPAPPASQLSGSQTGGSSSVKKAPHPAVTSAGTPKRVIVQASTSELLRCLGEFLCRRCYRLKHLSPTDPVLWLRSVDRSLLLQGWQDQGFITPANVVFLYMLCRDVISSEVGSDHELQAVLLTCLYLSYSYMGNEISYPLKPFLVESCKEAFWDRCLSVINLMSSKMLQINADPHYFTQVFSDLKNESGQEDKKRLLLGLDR
SMILES,IC50 [1] [nM],Drug uptake (Brain) [ng/g],fold change (FC) (Homo sapiens)
CCOC(=O)c1cc(-c2csc(-c3ccnc(N)c3)n2)c(=O)[nH]c1C,20,,
CCCc1[nH]c(=O)c(-c2csc(-c3ccncc3)n2)cc1C(=O)OCC,55,,
CCN(CC)CC(C)OC(=O)c1cc(-c2csc(-c3ccncc3)n2)c(=O)[nH]c1C(C)C (stereo not drawn),36,,
CCOC(=O)c1cc(-c2csc(-c3ccncc3)n2)c(=O)[nH]c1CC,4.1,,
CCOC(=O)c1cc(-c2csc(-c3ccncc3)n2)c(=O)[nH]c1COCc1ccccc1,779,,
CCOC(=O)c1cc(-c2csc(-c3ccncc3)n2)c(=O)[nH]c1C(C)C,157,4640,
CCOC(=O)c1cc(-c2csc(-c3ccnc(NCCN(CC)CC)c3)n2)c(=O)[nH]c1C,139,,
CC(C)c1[nH]c(=O)c(-c2csc(-c3ccncc3)n2)cc1C(=O)OC1CCCN(C)C1 (stereo not drawn),73,,
CCOC(=O)c1cc(-c2csc(-c3ccncc3)n2)c(=O)[nH]c1C1CC1,198,,
CCOC(=O)c1cc(-c2csc(-c3ccncc3)n2)c(=O)[nH]c1C(F)(F)F,11500,,
CCOC(=O)c1cc(-c2csc(-c3ccnc(Cl)c3)n2)c(=O)[nH]c1C,160,,
CCN(CC)CCOC(=O)c1cc(-c2csc(-c3ccncc3)n2)c(=O)[nH]c1C(C)C,53,,
CCOC(=O)c1cc(-c2csc(CS(=O)(=O)c3ccccc3)n2)c(=O)[nH]c1COCc1ccccc1,5.3,,70
CC(C)c1[nH]c(=O)c(-c2csc(-c3ccncc3)n2)cc1C(=O)OC1CCN(C)CC1,647,,
CC(C)c1[nH]c(=O)c(-c2csc(-c3ccncc3)n2)cc1C(=O)OCCN1CCCC1,112,,
CCOC(=O)c1cc(-c2csc(CS(=O)(=O)c3ccccc3)n2)c(=O)[nH]c1C,3.3,44,70
CCOC(=O)c1cc(-c2csc(-c3ccnc(NC)c3)n2)c(=O)[nH]c1C(C)C,28,,
CCCc1[nH]c(=O)c(-c2csc(CS(=O)(=O)c3ccccc3)n2)cc1C(=O)OCC,1.4,,70
CCOC(=O)c1cc(-c2csc(-c3ccncc3)n2)c(=O)[nH]c1C,131,,
CCOC(=O)c1cc(-c2csc(-c3ccnc(OC)c3)n2)c(=O)[nH]c1C(C)C,672,,
CCN(CC)CCCOC(=O)c1cc(-c2csc(-c3ccncc3)n2)c(=O)[nH]c1C(C)C,47,,
CC(C)c1[nH]c(=O)c(-c2csc(-c3ccncc3)n2)cc1C(=O)OCCc1ccccc1,119,,
CCOC(=O)c1cc(-c2csc(-c3ccnc(NCC(C)C)c3)n2)c(=O)[nH]c1C,14,,
